Tests used:
[1] = tested on: spores of the genera Bacillus and Clostridium; conditions: substance added to the buffer; neutral suspensions heated at 65° C. for 20 minutes; cited from earlier work
L. monocytogenes [2] = test: Antibiotic tolerance of vegetative and aroused dormant L. monocytogenes (classification); type: cell-based; conditions: both native vegetative and aroused dormant cells
L. monocytogenes [3] = test: Dialysis plus dilution of dormant L. monocytogenes, growth in presence of antibiotic; type: cell-based; conditions: 18 hrs. adjustment period
Procedure: An aliqout of culture was dialyzed against 250 volumes of PBS, pH 7.3 at 37° C. with stirring for 40 min. After an adjustment period of 18 hrs., the retentate was diluted serially 1:5 in PBS, pH 7.3, and streaked on agar.

L. plantarum ATCC 14917 = test: Dialysis of dormant L. plantarum ATCC 14917, tolerance to antibiotic; type: cell-based; conditions: retentate after four changes of 250 volumes of PBS, 44 hrs. of dialysis, no adjustment period
L. caseii [4] = test: Growth of dormant L. caseii on agar with antibiotic after sequential extractions; type: cell-based; conditions: for Growth in presence of 60 IU/mL ampicillin: PBS pH 7.3
Procedure: (§1) A culture containing 100% dormant bacteria was microfuged and the supernatant replaced with an equal volume of PBS, pH 7.3 and incubated at 37° C. After 20 minutes, the pellet was again recovered by centrifugation and resuspended in fresh PBS.
A 2 year old dormant broth culture of L. caseii was centrifuged and the supernatant replaced with an equal volume of Dulbeccos' PBS, 1× or 4× at pH 7.3, or water for 20 min. followed by different periods of adjustment at 37° C.

P. aeruginosa = test: Growth of duplex culture of P. aeruginosa with antibiotic after sequential extractions; type: cell-based; conditions: Dulbecco's PBS pH 7.3
Procedure: Separate cultures containing both dormant and vegetative cells of P. aeruginosa or E. coli were centrifuged and the pellets resuspended in an equal amount of Dulbecco's PBS pH 7.3 for serial extractions of 20 min. followed by different periods of adjustment at 37° C.

L. caseii [5] = test: Dialysis plus dilution of dormant L. caseii, growth in presence of antibiotic; type: cell-based; conditions: for Growth in presence of 60 IU Amp/mL: dialysis, 18 hrs. adjustment period
L. monocytogenes [6] = test: Growth (CFUs/mL or grow-out hrs.) of dormant L. monocytogenes on agar with antibiotic after sequential PBS extractions; type: cell-based; conditions: for Growth in presence of ampicillin: PBS pH 7.3
Procedure: as §1
A 4 year old dormant broth culture of L. monocytogenes was centrifuged and the supernatant replaced with an equal volume of Dulbecco's PBS, 1×, 4×, or 10×, pH 7.3 or 6.1 for 10, 20, or 40 min. extraction periods, followed by different periods of adjustment at 37° C. This was repeated and the pellets held for various times in buffer (adjustment period) before plating on agar. Inoculated agars were held at 37° C. for various lengths of time (grow-out period).

L. monocytogenes [7] = test: L. monocytogenes arousal by serial dilutions in PBS, growth on antibiotic agar; type: cell-based; conditions: PBS pH 7.3
S. aureus = test: Vancomycin tolerance of aroused dormant and vegetative S. aureus; type: cell-based; conditions: aroused dormant forms after heat-killing of vegetative forms
Description: Dormant cells of S. aureus could be enumerated and classified in the presence of their vegetative forms by heat-killing the sensitive vegetative forms while preserving the more resistant dormant forms. […] Before heating, 4×10^7 CFUs/mL were viable, after heating, no viable cells were detected until the dormant cells were aroused by osmolal downshift gradients.

[8] = dilution after adjustment 1:125
[9] = dilution after adjustment: None

C[C@H](N)C(=O)O [L-alanine]
spores that germinate [1]: 100%

N[C@@H](Cc1ccc(O)cc1)C(=O)O [L-tyrosine]
spores that germinate [1]: 100%

Nc1ncnc2c1ncn2[C@@H]1O[C@H](CO)[C@@H](O)[C@H]1O [adenosine]
spores that germinate [1]: 100%

CC1(C)S[C@@H]2[C@H](NC(=O)[C@H](N)c3ccccc3)C(=O)N2[C@H]1C(=O)O [ampicillin]
Tolerance to 60 IU of ampicillin per mL (L. monocytogenes [2]): tolerant | Growth in presence of 60 IU Amp/mL (L. monocytogenes [3]; dilution after adjustment 1:5): 10^4 CFUs/mL | Growth in presence of 60 IU Amp/mL (L. monocytogenes [3]; dilution after adjustment 1:25): 10^5 CFUs/mL | Growth in presence of 60 IU Amp/mL (L. monocytogenes [3]; [8]): 10^5 CFUs/mL | Growth in presence of 60 IU Amp/mL (L. monocytogenes [3]; [9]): 10^3 CFUs/mL | Tolerance to ampicillin (L. plantarum ATCC 14917): not tolerant | Growth in presence of 60 IU amp/mL (L. caseii [4]; L. caseii ATCC 393, Dulbecco's PBS pH 7.3, 7 × 20 min., adjustment time 144 hrs.): 48 h | Growth in presence of 60 IU/mL ampicillin (L. caseii [4]; 1st-5th 20 min. extraction): 0 CFUs/mL | Growth in presence of 60 IU/mL ampicillin (L. caseii [4]; 6th 20 min. + 72 hrs. @ 37° C.): 0 CFUs/mL | Growth in presence of 60 IU/mL ampicillin (L. caseii [4]; 6th 20 min. + 96 hrs. @ 37° C.): 0 CFUs/mL | Growth in presence of 60 IU/mL ampicillin (L. caseii [4]; Control (no extraction)): 0 CFUs/mL | Growth in presence of 60 IU amp/mL (P. aeruginosa; 3 × 20 min., adjustment time 24 hrs.): 72 h | Growth in presence of 60 IU amp/mL (P. aeruginosa; 6 × 20 min., adjustment time 0 hrs.): 48 h | Tolerance to ampicillin (L. caseii [5]; L. caseii ATCC 393 aroused by dialysis pH 7.3, dilutions 1:5 and 1:5, adjustment period 124 hours at 37° C.): not tolerant | Growth in presence of 60 IU Amp/mL (L. caseii [5]; dilution after adjustment 1:5): 0 CFUs/mL | Growth in presence of 60 IU Amp/mL (L. caseii [5]; dilution after adjustment 1:25): 0 CFUs/mL | Growth in presence of 60 IU Amp/mL (L. caseii [5]; [8]): 0 CFUs/mL | Growth in presence of 60 IU Amp/mL (L. caseii [5]; [9]): 0 CFUs/mL | Growth in presence of 60 IU amp/mL (L. monocytogenes [6]; Dulbecco's 4X PBS pH 7.3, 3 × 20 min., adjustment time 48 hrs.): 24 h | Growth in presence of 60 IU amp/mL (L. monocytogenes [6]; Dulbecco's 4X PBS pH 7.3, 3 × 20 min., adjustment time 72 hrs.): 24 h | Growth in presence of 60 IU amp/mL (L. monocytogenes [6]; Dulbecco's 10X PBS pH 7.3, 3 × 20 min., adjustment time 48 hrs.): 24 h | Growth in presence of 60 IU amp/mL (L. monocytogenes [6]; Dulbecco's 10X PBS pH 7.3, 3 × 20 min., adjustment time 72 hrs.): 24 h | Growth in presence of 60 IU amp/mL (L. monocytogenes [6]; Dulbecco's PBS pH 6.1, 5 × 20 min., adjustment time 120 hrs.): 24 h | Growth in presence of 60 IU amp/mL (L. monocytogenes [6]; Dulbecco's PBS pH 6.1, 7 × 20 min., adjustment time 96 hrs.): 24 h | Growth in presence of 60 IU amp/mL (L. monocytogenes [6]; Dulbecco's PBS pH 7.3, 1 × 20 min., adjustment time 0 hrs.): 48 h | Growth in presence of 60 IU amp/mL (L. monocytogenes [6]; Dulbecco's PBS pH 7.3, 3 × 20 min., adjustment time 0 hrs.): 48 h | Growth in presence of 60 IU amp/mL (L. monocytogenes [6]; Dulbecco's PBS pH 7.3, 3 × 20 min., adjustment time 48 hrs.): 48 h | Growth in presence of 60 IU amp/mL (L. monocytogenes [6]; Dulbecco's PBS pH 7.3, 3 × 20 min., adjustment time 72 hrs.): 48 h | Growth in presence of 60 IU amp/mL (L. monocytogenes [6]; Dulbecco's PBS pH 7.3, 3 × 40 min., adjustment time 96 hrs.): 24 h | Growth in presence of 60 IU amp/mL (L. monocytogenes [6]; Dulbecco's PBS pH 7.3, 5 × 10 min., adjustment time 96 hrs.): 24 h | Growth in presence of 60 IU amp/mL (L. monocytogenes [6]; Dulbecco's PBS pH 7.3, 6 × 10 min., adjustment time 0 hrs.): 48 h | Growth in presence of 60 IU amp/mL (L. monocytogenes [6]; Dulbecco's PBS pH 7.3, 6 × 20 min., adjustment time 0 hrs.): 48 h | Growth in presence of 60 IU amp/mL (L. monocytogenes [6]; Dulbecco's PBS pH 7.3, 6 × 20 min., adjustment time 48 hrs.): 48 h | Growth in presence of 60 IU amp/mL (L. monocytogenes [6]; Dulbecco's PBS pH 7.3, 6 × 20 min., adjustment time 72 hrs.): 48 h | Growth in presence of 60 IU amp/mL (L. monocytogenes [6]; Dulbecco's PBS pH 7.3, 7 × 40 min., adjustment time 96 hrs.): 48 h | Growth in presence of 60 IU amp/mL (L. monocytogenes [6]; Dulbecco's PBS pH 7.3, 9 × 20 min., adjustment time 0 hrs.): 48 h | Growth in presence of 60 IU amp/mL (L. monocytogenes [6]; Dulbecco's PBS pH 7.3, 9 × 20 min., adjustment time 48 hrs.): 48 h | Growth in presence of 60 IU amp/mL (L. monocytogenes [6]; Dulbecco's PBS pH 7.3, 9 × 20 min., adjustment time 72 hrs.): 48 h | Growth in presence of ampicillin (L. monocytogenes [6]; 1st 20 min. extraction): 10^4 CFUs/mL | Growth in presence of ampicillin (L. monocytogenes [6]; 2nd 20 min. extraction): 10^4 CFUs/mL | Growth in presence of ampicillin (L. monocytogenes [6]; 3rd 20 min. extraction): 10^4 CFUs/mL | Growth in presence of ampicillin (L. monocytogenes [6]; 4th 20 min. extraction): 10^5 CFUs/mL | Growth in presence of ampicillin (L. monocytogenes [6]; 5th 20 min. extraction): 10^5 CFUs/mL | Growth in presence of ampicillin (L. monocytogenes [6]; 6th 20 min. extraction): 10^5 CFUs/mL | Growth in presence of ampicillin (L. monocytogenes [6]; Control (no extraction)): 0 CFUs/mL | Periods of adjustment required for growth on: 60 IU Amp (L. monocytogenes [7]; serial dilutions 1:10): 144 h | Periods of adjustment required for growth on: 60 IU Amp (L. monocytogenes [7]; serial dilutions 1:100): 144 h | Periods of adjustment required for growth on: 60 IU Amp (L. monocytogenes [7]; serial dilutions 1:125): 144 h | Periods of adjustment required for growth on: 60 IU Amp (L. monocytogenes [7]; serial dilutions 1:1000): 144 h

CN(C)[C@@H]1C(O)=C(C(N)=O)C(=O)[C@@]2(O)C(O)=C3C(=O)c4c(O)cccc4[C@@](C)(O)[C@H]3C[C@@H]12 [tetracycline]
Periods of adjustment required for growth on: 30 μg TC (L. monocytogenes [7]; serial dilutions 1:10): 144 h | Periods of adjustment required for growth on: 30 μg TC (L. monocytogenes [7]; serial dilutions 1:100): 144 h | Periods of adjustment required for growth on: 30 μg TC (L. monocytogenes [7]; serial dilutions 1:1000): 144 h

CN[C@H](CC(C)C)C(=O)N[C@H]1C(=O)N[C@@H](CC(N)=O)C(=O)N[C@H]2C(=O)N[C@H]3C(=O)N[C@H](C(=O)N[C@H](C(=O)O)c4cc(O)cc(O)c4-c4cc3ccc4O)[C@H](O)c3ccc(c(Cl)c3)Oc3cc2cc(c3O[C@@H]2O[C@H](CO)[C@@H](O)[C@H](O)[C@H]2O[C@H]2C[C@](C)(N)[C@H](O)[C@H](C)O2)Oc2ccc(cc2Cl)[C@H]1O [vancomycin]
Tolerance to 30 μg vancomycin/mL (S. aureus): showed tolerance

— US6589771B1, “Methods for arousing dormant bacteria” (Immunom Technologies, Inc., priority 1999, dated 2003)
